Results published in ChEMBL document CHEMBL1201862, “PubChem BioAssay data set” (2004).
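Exposure lasted 48 hours, with cells grown in 96-well plates and compounds tested at five concentrations. Here, GI50 denotes the concentration required for 50% inhibition of growth.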 The source made the active and inactive calls. No stated cut-off is given here; in the data, active = GI50 up to about 1.1 µM and inactive = higher.

Assays:
Experiment in all cases: NCI tumour cell line growth inhibition, 48 h
SR = system: SR
786-0 = system: 786-0
MOLT-4 = system: MOLT-4
IGROV-1 = system: IGROV-1
LOX IMVI = system: LOX IMVI
DMS-114 = system: DMS-114
SW-620 = system: SW-620
K562 = system: K562
KM-20L2 = system: KM-20L2
NCI-H226 = system: NCI-H226
NCI-H23 = system: NCI-H23
NCI-H460 = system: NCI-H460
UACC-62 = system: UACC-62
HT-29 = system: HT-29
RXF 393 = system: RXF 393
MDA-MB-435 = system: MDA-MB-435
Hs-578T = system: Hs-578T
HCC 2998 = system: HCC 2998
MDA-MB-231 = system: MDA-MB-231
SK-MEL-2 = system: SK-MEL-2

What does the source list for `COc1ccc(/C=C2\N=C(c3ccccc3)N(Nc3nnc(NN4C(=O)/C(=C/c5ccc(OC)cc5)N=C4c4ccccc4)c4ccccc34)C2=O)cc1`?
GI50 (SR): 26.6 µM (inactive); GI50 (786-0): 56.9 µM (inactive); GI50 (MOLT-4): 29.6 µM (inactive); GI50 (IGROV-1): > 100 µM (inactive); GI50 (LOX IMVI): 20.7 µM (inactive); GI50 (DMS-114): 61 µM (inactive); GI50 (SW-620): 55.2 µM (inactive); GI50 (K562): 38.1 µM (inactive); GI50 (KM-20L2): 53.2 µM (inactive); GI50 (NCI-H226): 96.4 µM (inactive); GI50 (NCI-H23): > 100 µM (inactive); GI50 (NCI-H460): > 100 µM (inactive); GI50 (UACC-62): 70.5 µM (inactive); GI50 (HT-29): 57.5 µM (inactive); GI50 (RXF 393): > 100 µM (inactive)

With `Cc1ccc(C(=O)OC[C@H]2CC[C@@H](n3cc(N(C)C4CCCCC4)c(=O)[nH]c3=O)O2)cc1` as the molecule, how does the GI50 (SR) read?
The GI50 was 95.7 µM (inactive).

And the GI50 (786-0)?
The GI50 was 28.1 µM (inactive).

And the GI50 (MDA-MB-435)?
The GI50 was 65.2 µM (inactive).

And the GI50 (MOLT-4)?
Its GI50 is 30 µM (inactive).

What about the GI50 (IGROV-1) of the same molecule?
Its GI50 is 33.4 µM (inactive).

And the GI50 (LOX IMVI)?
The GI50 was 19.1 µM (inactive).

What about the GI50 (Hs-578T) of the same molecule?
Its GI50 is 35.8 µM (inactive).

What about the GI50 (SW-620) of the same molecule?
The GI50 was 40 µM (inactive).

What about the GI50 (K562) of the same molecule?
Its GI50 is 38 µM (inactive).

What about the GI50 (HCC 2998) of the same molecule?
Its GI50 is > 100 µM (inactive).

And the GI50 (NCI-H226)?
Its GI50 is 24.4 µM (inactive).

What about the GI50 (NCI-H23) of the same molecule?
The GI50 was 43.9 µM (inactive).

And the GI50 (NCI-H460)?
Its GI50 is 32.7 µM (inactive).

What about the GI50 (MDA-MB-231) of the same molecule?
The GI50 was 14.9 µM (inactive).

What about the GI50 (UACC-62) of the same molecule?
The GI50 was 29.7 µM (inactive).

And the GI50 (SK-MEL-2)?
Its GI50 is 85.7 µM (inactive).

And the GI50 (HT-29)?
The GI50 was 18.5 µM (inactive).

What about the GI50 (RXF 393) of the same molecule?
Its GI50 is 16.7 µM (inactive).

How did the GI50 (786-0) turn out when `CCN1c2ccccc2C(C(SC)S(=O)(=O)c2ccc(C)cc2)c2c1[nH]c(=O)n(C)c2=O` (stereo unspecified) was run?
Its GI50 is > 100 µM (inactive).

And the GI50 (MOLT-4)?
Its GI50 is 94 µM (inactive).

What about the GI50 (IGROV-1) of the same molecule?
Its GI50 is > 100 µM (inactive).

What about the GI50 (LOX IMVI) of the same molecule?
Its GI50 is > 100 µM (inactive).

And the GI50 (DMS-114)?
The GI50 was > 100 µM (inactive).

And the GI50 (SW-620)?
The GI50 was > 100 µM (inactive).

And the GI50 (K562)?
Its GI50 is > 100 µM (inactive).

What about the GI50 (HCC 2998) of the same molecule?
The GI50 was > 100 µM (inactive).

What about the GI50 (NCI-H226) of the same molecule?
Its GI50 is > 100 µM (inactive).

What about the GI50 (NCI-H23) of the same molecule?
Its GI50 is > 100 µM (inactive).

What about the GI50 (UACC-62) of the same molecule?
The GI50 was > 100 µM (inactive).

And the GI50 (SK-MEL-2)?
Its GI50 is 71.1 µM (inactive).

What about the GI50 (HT-29) of the same molecule?
The GI50 was > 100 µM (inactive).

How did the GI50 (SR) turn out when `Cn1c2ccccc2c2ccc3c(c21)C(=O)c1ccc2c4ccccc4n(C)c2c1C3=O` was run?
Its GI50 is > 100 µM (inactive).

And the GI50 (786-0)?
The GI50 was 99.1 µM (inactive).

And the GI50 (MDA-MB-435)?
The GI50 was > 100 µM (inactive).

What about the GI50 (MOLT-4) of the same molecule?
The GI50 was > 100 µM (inactive).

And the GI50 (IGROV-1)?
The GI50 was > 100 µM (inactive).

What about the GI50 (LOX IMVI) of the same molecule?
Its GI50 is > 100 µM (inactive).

And the GI50 (Hs-578T)?
The GI50 was > 100 µM (inactive).

And the GI50 (SW-620)?
Its GI50 is > 100 µM (inactive).

What about the GI50 (K562) of the same molecule?
The GI50 was > 100 µM (inactive).

What about the GI50 (HCC 2998) of the same molecule?
Its GI50 is > 100 µM (inactive).

What about the GI50 (NCI-H226) of the same molecule?
The GI50 was > 100 µM (inactive).

And the GI50 (NCI-H23)?
Its GI50 is > 100 µM (inactive).

What about the GI50 (NCI-H460) of the same molecule?
The GI50 was > 100 µM (inactive).

And the GI50 (MDA-MB-231)?
The GI50 was > 100 µM (inactive).

What about the GI50 (UACC-62) of the same molecule?
The GI50 was > 100 µM (inactive).

And the GI50 (SK-MEL-2)?
The GI50 was > 100 µM (inactive).

What about the GI50 (HT-29) of the same molecule?
Its GI50 is > 100 µM (inactive).

What about the GI50 (RXF 393) of the same molecule?
The GI50 was > 100 µM (inactive).

How did the GI50 (SR) turn out when `O=C(O)Cc1cccnc1` was run?
The GI50 was > 100 µM (inactive).

And the GI50 (786-0)?
Its GI50 is > 100 µM (inactive).

And the GI50 (MDA-MB-435)?
Its GI50 is > 100 µM (inactive).

And the GI50 (MOLT-4)?
Its GI50 is > 100 µM (inactive).

And the GI50 (IGROV-1)?
The GI50 was > 100 µM (inactive).

And the GI50 (LOX IMVI)?
The GI50 was > 100 µM (inactive).

And the GI50 (Hs-578T)?
Its GI50 is > 100 µM (inactive).

And the GI50 (SW-620)?
Its GI50 is > 100 µM (inactive).

And the GI50 (K562)?
The GI50 was > 100 µM (inactive).

And the GI50 (HCC 2998)?
The GI50 was > 100 µM (inactive).

And the GI50 (NCI-H226)?
Its GI50 is > 100 µM (inactive).

What about the GI50 (NCI-H23) of the same molecule?
The GI50 was > 100 µM (inactive).

What about the GI50 (NCI-H460) of the same molecule?
Its GI50 is > 100 µM (inactive).

What about the GI50 (MDA-MB-231) of the same molecule?
Its GI50 is > 100 µM (inactive).

What about the GI50 (UACC-62) of the same molecule?
Its GI50 is > 100 µM (inactive).

What about the GI50 (SK-MEL-2) of the same molecule?
The GI50 was > 100 µM (inactive).

What about the GI50 (HT-29) of the same molecule?
The GI50 was > 100 µM (inactive).

What about the GI50 (RXF 393) of the same molecule?
The GI50 was > 100 µM (inactive).

`O=C(CC(=O)C(=O)Nc1ccccc1)CC(c1ccccc1)c1c(O)c2ccccc2oc1=O` (stereo unspecified) was tested. Which GI50 (786-0) did it give?
Its GI50 is > 100 µM (inactive).

And the GI50 (MOLT-4)?
Its GI50 is > 100 µM (inactive).

And the GI50 (IGROV-1)?
The GI50 was > 100 µM (inactive).

What about the GI50 (LOX IMVI) of the same molecule?
Its GI50 is > 100 µM (inactive).

And the GI50 (DMS-114)?
Its GI50 is > 100 µM (inactive).

What about the GI50 (SW-620) of the same molecule?
Its GI50 is > 100 µM (inactive).

What about the GI50 (K562) of the same molecule?
Its GI50 is > 100 µM (inactive).

What about the GI50 (HCC 2998) of the same molecule?
The GI50 was > 100 µM (inactive).

And the GI50 (KM-20L2)?
The GI50 was > 100 µM (inactive).

And the GI50 (NCI-H226)?
The GI50 was > 100 µM (inactive).

What about the GI50 (NCI-H460) of the same molecule?
Its GI50 is > 100 µM (inactive).

And the GI50 (UACC-62)?
The GI50 was > 100 µM (inactive).

What about the GI50 (SK-MEL-2) of the same molecule?
The GI50 was > 100 µM (inactive).

And the GI50 (HT-29)?
Its GI50 is > 100 µM (inactive).

What about the GI50 (RXF 393) of the same molecule?
Its GI50 is > 100 µM (inactive).

Which GI50 (SR) does the source give for `CC1(C)CC2C=C(C=O)C3(C=O)CC3(C)C2C1` (stereo unspecified) here?
The GI50 was 0.218 µM (active).

What about the GI50 (786-0) of the same molecule?
The GI50 was 1.52 µM (inactive).

What about the GI50 (MDA-MB-435) of the same molecule?
Its GI50 is 1.75 µM (inactive).

What about the GI50 (MOLT-4) of the same molecule?
Its GI50 is 0.191 µM (active).

What about the GI50 (IGROV-1) of the same molecule?
The GI50 was 2.15 µM (inactive).

And the GI50 (LOX IMVI)?
The GI50 was 1.34 µM (inactive).

What about the GI50 (Hs-578T) of the same molecule?
The GI50 was 2.24 µM (inactive).

And the GI50 (SW-620)?
The GI50 was 0.582 µM (active).

What about the GI50 (K562) of the same molecule?
The GI50 was 1.1 µM (active).

And the GI50 (HCC 2998)?
The GI50 was 5.5 µM (inactive).

What about the GI50 (NCI-H226) of the same molecule?
The GI50 was 4.21 µM (inactive).

What about the GI50 (NCI-H23) of the same molecule?
The GI50 was 1.83 µM (inactive).

What about the GI50 (NCI-H460) of the same molecule?
Its GI50 is 4.44 µM (inactive).

What about the GI50 (MDA-MB-231) of the same molecule?
The GI50 was 1.91 µM (inactive).

And the GI50 (UACC-62)?
Its GI50 is 5.46 µM (inactive).

And the GI50 (SK-MEL-2)?
The GI50 was 2.07 µM (inactive).

What about the GI50 (HT-29) of the same molecule?
The GI50 was 1.41 µM (inactive).

And the GI50 (RXF 393)?
The GI50 was 1.94 µM (inactive).

Which GI50 (786-0) does the source give for `O=c1[nH]c(=O)n(C2CC(O)C(CO)O2)cc1OS(=O)(=O)C(F)(F)F` (stereo unspecified) here?
Its GI50 is > 100 µM (inactive).

And the GI50 (MOLT-4)?
The GI50 was > 100 µM (inactive).

And the GI50 (IGROV-1)?
The GI50 was > 100 µM (inactive).

What about the GI50 (LOX IMVI) of the same molecule?
Its GI50 is > 100 µM (inactive).

What about the GI50 (DMS-114) of the same molecule?
The GI50 was > 100 µM (inactive).

And the GI50 (SW-620)?
The GI50 was > 100 µM (inactive).

And the GI50 (K562)?
The GI50 was > 100 µM (inactive).

And the GI50 (HCC 2998)?
The GI50 was > 100 µM (inactive).

What about the GI50 (KM-20L2) of the same molecule?
The GI50 was > 100 µM (inactive).

And the GI50 (NCI-H226)?
The GI50 was > 100 µM (inactive).

And the GI50 (NCI-H23)?
The GI50 was > 100 µM (inactive).

What about the GI50 (NCI-H460) of the same molecule?
The GI50 was > 100 µM (inactive).

What about the GI50 (UACC-62) of the same molecule?
Its GI50 is 38.9 µM (inactive).

What about the GI50 (SK-MEL-2) of the same molecule?
The GI50 was > 100 µM (inactive).

And the GI50 (HT-29)?
The GI50 was > 100 µM (inactive).

What about the GI50 (RXF 393) of the same molecule?
The GI50 was > 100 µM (inactive).
